Data from patent US10822325B2, “Human GLUT5 specific inhibitors and methods of treatment” (UNM RAINFOREST INNOVATIONS, priority 2015, dated 2020).

Target: T1, GlcPSe,F348H (Staphylococcus epidermidis, UniProt A0A0H2VG78, F348H)
T1 construct: made in house; host or cells: Escherichia coli JM1100 (pBAD); right-side-out membrane vesicles
Test: Glucose uptake by GlcPSe,F348H mutant in right-side-out vesicles of JM1100 E. coli cells
Type: biochemical, bacterial
Conditions: for effect on GlcPSe,F348H glucose transport: 2 mM compound, RSO vesicles
Method: Glucose transport assay for GlcPSe, wild-type and F348H mutant, was performed as described previouslyl^16. GlcPSe was cloned into the pBAD vector (Invitrogen) with C-terminal 6×His tag. F348H mutation was done with the site-directed mutagenesis method^37. GlcPSe proteins were expressed in the glucose transporter deficient Escherichia coli strain JM1100. Cells were grown at 37° C., in Luria Broth medium, with 100 μg/mL ampicillin. Protein expression was induced with 0.3 mM L-arabinose at O.D.600 nm 0.6. After 3 hours, cells were harvested by centrifugation at 2,500 g for 5 min. The right-side-out (RSO) membrane vesicles of JM1100 E. coli cells were prepared as described previouslyl^16,39,40. Transport assay was initiated by the addition of ^14C-radiolabeled glucose (Moravek Biochemicals) to 50 μL RSO vesicles in 100 mM KPi buffer pH 7.5, at O.D.600 nm of 2.0. After one minute, the transport was stopped and the radioactivity was measured as described below. When inhibitors were used, they were incubated with RSO vesicles 1 minute before transport initiation.
As MSNBA seemed to be specific for GLUT5, we focused on the residues in the MSNBA predicted binding site that were different from GLUT5 compared to GLUT1-4 and GlcPSe. Among these, H387 of GLUT5 potentially interacts with the […] group of MSNBA (FIG. 4b and FIG. 6), but is a Phe in GLUT1-4 as well as GlcPSe (FIG. 4c). To test if this residue is important for MSNBA inhibition, we constructed and expressed three mutant proteins: GlcPSe,F348H, GLUT1F379H, and GLUT5H387F. As with the wild-type proteins, GLUT1F379H and GLUT5H387F were recombinantly produced in insect cells, purified and reconstituted in proteoliposomes. Their transport activity was assayed by the entrance counter-flow method in proteolipsomes. Glucose transport of GlcPSe,F348H was determined in JM1100 E. coli cells in right-side-out (RSO) vesicles.

T1 sequence (A0A0H2VG78 whole entry F348H): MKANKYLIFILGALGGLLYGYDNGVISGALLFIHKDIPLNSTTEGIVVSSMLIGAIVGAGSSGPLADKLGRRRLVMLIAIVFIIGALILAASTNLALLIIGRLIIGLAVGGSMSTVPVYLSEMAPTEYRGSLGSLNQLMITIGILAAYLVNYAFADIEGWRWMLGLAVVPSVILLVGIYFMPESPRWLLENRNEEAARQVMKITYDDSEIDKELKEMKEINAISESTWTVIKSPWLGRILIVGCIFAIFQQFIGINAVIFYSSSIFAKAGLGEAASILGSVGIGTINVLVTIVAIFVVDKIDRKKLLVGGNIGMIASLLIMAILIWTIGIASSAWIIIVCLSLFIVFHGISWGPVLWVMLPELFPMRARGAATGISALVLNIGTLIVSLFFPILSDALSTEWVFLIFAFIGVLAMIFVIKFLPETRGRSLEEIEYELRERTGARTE

| Compound | inhibition at 2000 µM (read-out: inhibition of GlcPSe,F348H transport activity) | effect on GlcPSe,F348H glucose transport |
| --- | --- | --- |
| CS(=O)(=O)c1ccc(Nc2ccc3c(c2)OCO3)c([N+](=O)[O-])c1 [MSNBA, N-[4-(methylsulfonyl)-2-nitrophenyl]-1,3-benzodioxol-5-amine] | 75% |  |
| C=C1[C@@H](C)[C@H]2[C@H](Cc3ccccc3)NC(=O)[C@]23OC(=O)/C=C/[C@H](O)CCC[C@@H](C)C/C=C/[C@H]3[C@@H]1O [cytochalasin B, reference compound] |  | decreased cytochalasin B inhibition |
| O=C(CCc1ccc(O)cc1)c1c(O)cc(O)cc1O [phloretin, reference compound] |  | still inhibited |
